# Assay results reported in patent US9919029B2, “Methods and pharmaceutical compositions for the treatment of bacterial infections” (INSERM (INSTITUT NATIONAL DE LA SANTE ET DE LA RECHERCHE …, priority 2013, dated 2018).
# System: Streptococcus pneumoniae
# Test: Streptococcus pneumoniae respiratory infection in mice
# Assay type: in vivo, BALB/c mice
# Details: severe/advanced infection; nasal flagellin plus antibiotic (oral amoxicillin or intraperitoneal bactrim)
# Experimental: (§1) Animals were infected with a lethal dose of Streptococcus pneumoniae (1-5×10^6 CFU of serotypel, clinical isolate E1586) and treated at 40 h and 48 h as depicted in the upper panel. Seventeen hours later (T=65 h), bacterial counts were defined by plating tissue homogenates. The Left side: bacterial counts per lung. Right side: bacterial counts per spleen.
# as §1, with “30” for “40 h and 48”, “Sixteen” for “Seventeen”, “(T=46” for “(T=65”
# Animals were infected with a lethal dose of Streptococcus pneumoniae (1-5×10^6 CFU of serotypel, clinical isolate E1586) and treated from 12 h to 84 h as depicted in the upper panel. Survival of animals was then analyzed during 5 days.
# FIG. 6. […] (A) S. pneumoniae-infected (2×10^6 CFU) BALB/c mice were treated intraperitoneally with 4.8 mg bactrim, i.e. co-trimoxazole (TMP-SMX) and intranasally with 2.5 μg flagellin FliCΔ174-400 and analyzed as indicated. (B) Survival was monitored every 12 h for 9 days. (C, D) Bacterial counts in lung (C) and spleen (D) was determined by measuring CFU per tissue. […] (E) The body weight of infected animals was measured and expressed relative to the initial weight. […]
substance,measurement,value
flagellin,reduction of number of bacteria compared to the antibiotic therapy alone,10-to-50 fold
